pEC50: −log10 of the molar value.
Experiments:
human CYP11B1 = biological target: T1, human CYP11B1 (Homo sapiens, UniProt P15538); assay: G-402 cellular enzyme assay, human CYP11B1 (cortisol release, HTRF); type: cell-based; conditions: G-402 cells, 1 μM Deoxycortisol
T1 construct: expressed in transfected cells
T1 sequence (P15538 25-503): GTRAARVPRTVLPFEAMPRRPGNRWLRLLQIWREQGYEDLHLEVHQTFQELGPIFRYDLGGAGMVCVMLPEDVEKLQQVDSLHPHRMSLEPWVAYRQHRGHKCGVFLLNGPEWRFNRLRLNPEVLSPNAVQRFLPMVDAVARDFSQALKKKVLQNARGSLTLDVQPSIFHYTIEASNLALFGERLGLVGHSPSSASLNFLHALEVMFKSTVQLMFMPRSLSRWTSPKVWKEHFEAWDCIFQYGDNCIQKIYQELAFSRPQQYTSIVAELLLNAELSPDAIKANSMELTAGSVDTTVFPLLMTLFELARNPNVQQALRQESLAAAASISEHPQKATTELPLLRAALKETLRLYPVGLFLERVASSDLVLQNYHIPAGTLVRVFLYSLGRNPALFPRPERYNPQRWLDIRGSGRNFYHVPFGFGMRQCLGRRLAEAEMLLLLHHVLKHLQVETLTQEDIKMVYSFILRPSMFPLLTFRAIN
Procedure, shortened: (§1)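 Supernatant steroid product measured by HTRF (aldosterone for CYP11B2, cortisol for CYP11B1) after 16 h exposure of stably transfected G-402 cells to compound. Substrates were 1 μM deoxycorticosterone and 1 μM deoxycortisol, respectively; EC50 derived from a four-parameter MMF curve fit.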

human CYP11B2 = biological target: T2, human CYP11B2 (Homo sapiens, UniProt P19099); assay: G-402 cellular enzyme assay, human CYP11B2 (aldosterone release, HTRF); type: cell-based; conditions: G-402 cells, 1 μM Deoxycorticosterone
T2 construct: expressed in transfected cells
T2 sequence (P19099 25-503): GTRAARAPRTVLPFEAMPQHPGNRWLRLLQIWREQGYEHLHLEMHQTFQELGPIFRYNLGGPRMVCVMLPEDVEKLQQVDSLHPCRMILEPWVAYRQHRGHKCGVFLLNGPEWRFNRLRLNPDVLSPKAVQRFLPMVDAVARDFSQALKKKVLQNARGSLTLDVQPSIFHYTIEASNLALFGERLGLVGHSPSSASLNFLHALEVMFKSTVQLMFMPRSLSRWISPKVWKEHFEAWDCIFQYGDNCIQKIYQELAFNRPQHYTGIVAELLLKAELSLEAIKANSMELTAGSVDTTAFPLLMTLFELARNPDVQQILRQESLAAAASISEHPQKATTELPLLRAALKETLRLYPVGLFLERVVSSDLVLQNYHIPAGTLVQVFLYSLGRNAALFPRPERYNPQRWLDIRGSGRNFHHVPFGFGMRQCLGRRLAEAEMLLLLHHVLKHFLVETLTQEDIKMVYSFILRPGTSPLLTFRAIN
Procedure, shortened: as §1

Row | SMILES | pEC50 (human CYP11B1) | pEC50 (human CYP11B2)
1 | CC(C)(O)c1c(F)cncc1N1CCc2cc(Cl)ccc2C1=O [Example 70, 6-Chloro-2-[5-fluoro-4-(1-hydroxy-1-methyl-ethyl)-pyridin-3-yl]-3,4-dihydro-2H-isoquinolin-1-one] | 6.41 | 6.34
2 | Cc1ccnn1Cc1cncc(N2CCc3cc(Cl)ccc3C2=O)c1 [Example 71, 6-Chloro-2-[5-(5-methyl-pyrazol-1-ylmethyl)-pyridin-3-yl]-3,4-dihydro-2H-isoquinolin-1-one] | 5.80 | 7.04
3 | O=C1c2ccc(Cl)cc2CCN1c1cncc2cc[nH]c12 [Example 72, 6-Chloro-2-(1H-pyrrolo[3,2-c]pyridin-7-yl)-3,4-dihydro-2H-isoquinolin-1-one] | 4.78 | 6.23
4 | O=C1c2ccc(Cl)cc2CCN1c1cncc2ccccc12 [Example 73, 6-Chloro-3,4-dihydro-[2,4′]biisoquinolinyl-1-one] | 6.60 | 7.87
5 | COCc1c(F)cncc1N1CCc2cc(Cl)ccc2C1=O [Example 75, 6-Chloro-2-(5-fluoro-4-methoxymethyl-pyridin-3-yl)-3,4-dihydro-2H-isoquinolin-1-one] | 5.56 | 6.78
6 | COC(C)c1c(F)cncc1N1CCc2cc(Cl)ccc2C1=O (stereo not drawn) [Example 76, 6-Chloro-2-[5-fluoro-4-(1-methoxy-ethyl)-pyridin-3-yl]-3,4-dihydro-2H-isoquinolin-1-one] | 4.86 | 6.31
7 | CC(C)OCc1ccncc1N1CCc2cc(Cl)ccc2C1=O [Example 77, 6-Chloro-2-(4-isopropoxy-methyl-pyridin-3-yl)-3,4-dihydro-2H-isoquinolin-1-one] | 4.89 | 6.18
8 | COC(c1ccncc1N1CCc2cc(Cl)ccc2C1=O)C1CC1 (stereo not drawn) [Example 78, 6-Chloro-2-[4-(cyclopropyl-methoxy-methyl)-pyridin-3-yl]-3,4-dihydro-2H-isoquinolin-1-one] | 5.84 | 6.12
9 | Cc1n[nH]c(C)c1-c1cncc(N2CCc3cc(Cl)ccc3C2=O)c1 [Example 79, 6-Chloro-2-[5-(3,5-dimethyl-1H-pyrazol-4-yl)-pyridin-3-yl]-3,4-dihydro-2H-isoquinolin-1-one] | 7.47 | 8.29
10 | Cc1ncn(C)c1-c1cncc(N2CCc3cc(Cl)ccc3C2=O)c1 [Example 80, 6-Chloro-2-[5-(3,5-dimethyl-3H-imidazol-4-yl)-pyridin-3-yl]-3,4-dihydro-2H-isoquinolin-1-one] | 7.24 | 8.33
11 | O=C1c2ccc(Cl)cc2CCN1c1cncc(CN2CCCCS2(=O)=O)c1 [Example 81, 6-Chloro-2-[5-(1,1-dioxo-1λ^6-[1,2]thiazinan-2-ylmethyl)-pyridin-3-yl]-3,4-dihydro-2H-isoquinolin-1-one] | 5.63 | 6.75
12 | O=C1c2ccc(Cl)cc2CCN1c1cncc(CN2CCCS2(=O)=O)c1 [Example 82, 6-Chloro-2-[5-(1,1-dioxo-1^λ6-isothiazolidin-2-ylmethyl)-pyridin-3-yl]-3,4-dihydro-2H-isoquinolin-1-one] | 6.22 | 7.10
13 | O=C1c2ccc(Cl)cc2CCN1c1cncc(CN2C(=O)CC[C@H]2CO)c1 [Example 83, 6-Chloro-2-[5-((S)-2-hydroxymethyl-5-oxo-pyrrolidin-1-ylmethyl)-pyridin-3-yl]-3,4-dihydro-2H-isoquinolin-1-one] | 4.80 | 6.23
14 | COC(=O)[C@@H]1CCCN1Cc1cncc(N2CCc3cc(Cl)ccc3C2=O)c1 [Example 84, (S)-1-[5-(6-Chloro-1-oxo-3,4-dihydro-1H-isoquinolin-2-yl)-pyridin-3-ylmethyl]-pyrrolidine-2-carboxylic acid methyl ester] | 5.32 | 6.65
15 | COc1cncc(N2C(=O)c3ccc(Cl)cc3CC2C)c1 (stereo not drawn) [Example 85, 6-Chloro-2-(5-methoxy-pyridin-3-yl)-3-methyl-3,4-dihydro-2H-isoquinolin-1-one] | 5.54 | 7.22
16 | CC1Cc2cc(Cl)ccc2C(=O)N1c1cncc(CO)c1 (stereo not drawn) [Example 86, 6-Chloro-2-(5-hydroxymethyl-pyridin-3-yl)-3-methyl-3,4-dihydro-2H-isoquinolin-1-one] | 5.11 | 6.42
17 | CC(C)c1nccn1Cc1cncc(N2C(=O)c3ccc(Cl)cc3CC2C)c1 (stereo not drawn) [Example 87, 6-Chloro-2-[5-(2-isopropyl-imidazol-1-ylmethyl)-pyridin-3-yl]-3-methyl-3,4-dihydro-2H-isoquinolin-1-one] | 5.03 | 6.60
18 | CC1Cc2cc(Cl)ccc2C(=O)N1c1cncc(F)c1 (stereo not drawn) [Example 89, 6-Chloro-2-(5-fluoro-pyridin-3-yl)-3-methyl-3,4-dihydro-2H-isoquinolin-1-one] | 4.77 | 6.57
19 | C[C@H]1Cc2cc(Cl)ccc2C(=O)N1c1cccnc1 [Example 92, (S)-6-Chloro-3-methyl-2-pyridin-3-yl-3,4-dihydro-2H-isoquinolin-1-one] | 4.94 | 6.57
20 | CC1Cc2cccc(Cl)c2C(=O)N1c1cccnc1 (stereo not drawn) [Example 93, 8-Chloro-3-methyl-2-pyridin-3-yl-3,4-dihydro-2H-isoquinolin-1-one] | 4.85 | 6.11
21 | O=C1c2ccc(Cl)c(Cl)c2CCN1c1cccnc1 [Example 95, 5,6-Dichloro-2-pyridin-3-yl-3,4-dihydro-2H-isoquinolin-1-one] | 4.99 | 6.49
22 | COc1cncc(N2CCc3nc(Cl)ccc3C2=O)c1 [Example 96, 2-Chloro-6-(5-methoxy-pyridin-3-yl)-7,8-dihydro-6H-[1,6]naphthyridin-5-one] | 6.27 | 7.34
23 | COc1cncc(N2CCc3nc(OC)ccc3C2=O)c1 [Example 97, 2-Methoxy-6-(5-methoxy-pyridin-3-yl)-7,8-dihydro-6H-[1,6]naphthyridin-5-one] | 6.66 | 7.77

Second part, the compound after the results:

Row | pEC50 (human CYP11B1) | pEC50 (human CYP11B2) | SMILES
24 | 5.17 | 6.64 | COc1ccc2c(n1)CCN(c1cccnc1)C2=O [Example 98, 2-Methoxy-6-pyridin-3-yl-7,8-dihydro-6H-[1,6]naphthyridin-5-one]
25 | 5.14 | 6.05 | COc1cncc(N2CCc3c(ccc(Cl)c3F)C2=O)c1 [Example 99, 6-Chloro-5-fluoro-2-(5-methoxy-pyridin-3-yl)-3,4-dihydro-2H-isoquinolin-1-one]
26 | 6.31 | 7.76 | COc1cncc(N2CCc3cc(Cl)c(F)cc3C2=O)c1 [Example 100, 6-Chloro-7-fluoro-2-(5-methoxy-pyridin-3-yl)-3,4-dihydro-2H-isoquinolin-1-one]
27 | 5.45 | 6.98 | O=C1c2cc(F)c(Cl)cc2CCN1c1cccnc1 [Example 101, 6-Chloro-7-fluoro-2-pyridin-3-yl-3,4-dihydro-2H-isoquinolin-1-one]
28 | 4.96 | 6.25 | COc1cncc(N2CC(C)(C)c3cc(Cl)ccc3C2=O)c1 [Example 103, 6-Chloro-2-(5-methoxy-pyridin-3-yl)-4,4-dimethyl-3,4-dihydro-2H-isoquinolin-1-one]
29 | 4.22 | 5.63 | CC1(C)CN(c2cncc(F)c2)C(=O)c2ccc(Cl)cc21 [Example 104, 6-Chloro-2-(5-fluoro-pyridin-3-yl)-4,4-dimethyl-3,4-dihydro-2H-isoquinolin-1-one]
30 | 5.35 | 6.42 | CC1CN(c2cccnc2)C(=O)c2ccc(Cl)cc21 (stereo not drawn) [Example 105, 6-Chloro-4-methyl-2-pyridin-3-yl-3,4-dihydro-2H-isoquinolin-1-one]
31 | 5.07 | 6.29 | CC1CN(c2cncc(F)c2)C(=O)c2ccc(Cl)cc21 (stereo not drawn) [Example 106, 6-Chloro-2-(5-fluoro-pyridin-3-yl)-4-methyl-3,4-dihydro-2H-isoquinolin-1-one]
32 | 6.11 | 7.20 | COc1cncc(N2CC(C)c3cc(Cl)ccc3C2=O)c1 (stereo not drawn) [Example 107, 6-Chloro-2-(5-methoxy-pyridin-3-yl)-4-methyl-3,4-dihydro-2H-isoquinolin-1-one]
33 | 5.01 | 6.79 | O=C1c2ccc(Cl)cc2CN1c1cccnc1 [Example 108, 5-Chloro-2-pyridin-3-yl-2,3-dihydro-isoindol-1-one]
